Assay results published in patent US20230255966A1, “A COMBINATION OF A CBP/P300 BROMODOMAIN INHIBITOR AND AN EGFR INHIBITOR FOR USE IN TREATING EGFR-MUTANT NSCLC” (TOLREMO THERAPEUTICS AG, priority 2020, published 2023).

Key:
CBP bromodomain = molecular target: T1, CBP bromodomain (Homo sapiens, UniProt Q92793); experiment: CBP bromodomain binding assay (TR-FRET); conditions: class symbols
T1 construct: purchased Cayman chemicals 600850
Method: Compounds solutions of 10 mM in DMSO were pre-diluted in DSMO to 25× stock solutions in DMSO. These were then diluted down to 4× in Assay buffer. A dilution series in Assay buffer was performed keeping the DMSO concentration stable. 5 μl compound in assay buffer was transferred into the assay plate (provided by assay kit) and the TR-FRET assay Cayman chemicals; 600850) was performed using the manufactor's instructions. […] The TR-FRET ratio was calculated by dividing 670 nm emission by 620 nm emission.

HCC827 cells [1] = experiment: Cell counting by nuclear fluorescent staining (Hoechst33342); format: cell-based
Method: Several plates were seeded, as for each time point of cell counting one plate was fixed and stained for analysis. […] Cell cultivation was continued until time of fixation and analysis for each plate. For extended time-points, medium and drugs were replenished twice weekly.
At the given time plates were washed 3 times with PBS and cells fixed with 80 μl 4% PFA for 10 min, RT. After 3 wash steps with PBS cells were stained with 10 μg/ml Hoechst33342 (Thermo Scientific H12492) in 100 μl PBS for 2 h, RT, dark. After 3× PBS washing-steps, Hoechst33342 signals were acquired on in an automated imaging mode using a Zeiss Apotome with motorized X/Y stage and a 5× objective. Image analysis and determination of Hoechst33342 spots (nuclei) was done using ImageJ. Number of nuclei was plotted as function of time using GraphPad Prism.

ATAD2A = molecular target: T2, ATAD2A (Homo sapiens, UniProt Q6PL18); experiment: BROMOscan BromoKdMAX; format: binding
T2 construct: T7 phage strains displaying bromodomains were grown in parallel; purchased DiscoverX; host or cells: T7 phage in E. coli host derived from BL21
Method: (§1) A BromoKdMAX was performed at DiscoverX.
(§2) The assay principle is the following: BROMOscan™ is a novel industry leading platform for identifying small molecule bromodomain inhibitors. Based on proven KINOMEscan™ technology, BRO-MOscan™ employs a proprietary ligand binding site-directed competition assay to quantitatively measure interactions between test compounds and bromodomains. This robust and reliable assay panel is suitable for high throughput screening and delivers quantitative ligand binding data to facilitate the identification and optimization of potent and selective small molecule bromodomain inhibitors.
(§3) The assay was conducted as follows: For the Bromodomain assays, T7 phage strains displaying bromodomains were grown in parallel in 24-well blocks in an E. coli host derived from the BL21 strain. E. coli were grown to log-phase and infected with T7 phage from a frozen stock (multiplicity of infection=0.4) and incubated with shaking at 32° C. until lysis (90-150 minutes). The lysates were centrifuged (5,000×g) and filtered (0.2 μm) to remove cell debris. […] The liganded beads were blocked with excess biotin and washed with blocking buffer (SeaBlock (Pierce), 1% BSA, 0.05% Tween 20, 1 mM DTT) to remove unbound ligand and to reduce non-specific phage binding. […] Test compounds were prepared as 1000× stocks in 100% DMSO. Kds were determined using an 11-point 3-fold compound dilution series with one DMSO control point. […] The compounds were then diluted directly into the assays such that the final concentration of DMSO was 0.09%. All reactions performed in polypropylene 384-well plates. Each was a final volume of 0.02 ml. […] The bromodomain concentration in the eluates was measured by qPCR.

ATAD2B = molecular target: T3, ATAD2B (Homo sapiens, UniProt Q9ULI0); experiment: BROMOscan BromoKdMAX; format: binding
T3 construct: T7 phage strains displaying bromodomains were grown in parallel; purchased DiscoverX; host or cells: T7 phage in E. coli host derived from BL21
Method: as §1, §2, §3

BAZ2A = molecular target: T4, BAZ2A (Homo sapiens, UniProt Q9UIF9); experiment: BROMOscan BromoKdMAX; format: binding
T4 construct: T7 phage strains displaying bromodomains were grown in parallel; purchased DiscoverX; host or cells: T7 phage in E. coli host derived from BL21
Method: as §1, §2, §3

BAZ2B = molecular target: T5, BAZ2B (Homo sapiens, UniProt Q9UIF8); experiment: BROMOscan BromoKdMAX; format: binding
T5 construct: T7 phage strains displaying bromodomains were grown in parallel; purchased DiscoverX; host or cells: T7 phage in E. coli host derived from BL21
Method: as §1, §2, §3

BRD1 = molecular target: T6, BRD1 (Homo sapiens, UniProt O95696); experiment: BROMOscan BromoKdMAX; format: binding
T6 construct: T7 phage strains displaying bromodomains were grown in parallel; purchased DiscoverX; host or cells: T7 phage in E. coli host derived from BL21
Method: as §1, §2, §3

BRPF3 = molecular target: T7, BRPF3 (Homo sapiens, UniProt Q9ULD4); experiment: BROMOscan BromoKdMAX; format: binding
T7 construct: T7 phage strains displaying bromodomains were grown in parallel; purchased DiscoverX; host or cells: T7 phage in E. coli host derived from BL21
Method: as §1, §2, §3

FALZ = molecular target: T8, FALZ (Homo sapiens, UniProt Q12830); experiment: BROMOscan BromoKdMAX; format: binding
T8 construct: T7 phage strains displaying bromodomains were grown in parallel; purchased DiscoverX (BROMOscan / BromoKdMAX service); host or cells: T7 phage in E. coli host derived from BL21
Method: as §1, §2, §3

GCN5L2 = molecular target: T9, GCN5L2 (Homo sapiens, UniProt Q92830); experiment: BROMOscan BromoKdMAX; format: binding
T9 construct: T7 phage strains displaying bromodomains were grown in parallel; purchased DiscoverX (BROMOscan / BromoKdMAX service); host or cells: T7 phage in E. coli host derived from BL21
Method: as §1, §2, §3

PBRM1(2) = molecular target: T10, PBRM1(2) (Homo sapiens, UniProt Q86U86); experiment: BROMOscan BromoKdMAX; format: binding
T10 construct: T7 phage strains displaying bromodomains were grown in parallel; purchased DiscoverX (BROMOscan / BromoKdMAX service); host or cells: T7 phage in E. coli host derived from BL21
Method: as §1, §2, §3

PBRM1(5) = molecular target: T11, PBRM1(5) (Homo sapiens, UniProt Q86U86); experiment: BROMOscan BromoKdMAX; format: binding
T11 construct: T7 phage strains displaying bromodomains were grown in parallel; purchased DiscoverX (BROMOscan / BromoKdMAX service); host or cells: T7 phage in E. coli host derived from BL21
Method: as §1, §2, §3

SMARCA2 = molecular target: T12, SMARCA2 (Homo sapiens, UniProt P51531); experiment: BROMOscan BromoKdMAX; format: binding
T12 construct: T7 phage strains displaying bromodomains were grown in parallel; purchased DiscoverX (BROMOscan / BromoKdMAX service); host or cells: T7 phage in E. coli host derived from BL21
Method: as §1, §2, §3

SMARCA4 = molecular target: T13, SMARCA4 (Homo sapiens, UniProt P51532); experiment: BROMOscan BromoKdMAX; format: binding
T13 construct: T7 phage strains displaying bromodomains were grown in parallel; purchased DiscoverX (BROMOscan / BromoKdMAX service); host or cells: T7 phage in E. coli host derived from BL21
Method: as §1, §2, §3

TRIM33(PHD, Bromo.) = molecular target: T14, TRIM33(PHD, Bromo.) (Homo sapiens, UniProt Q9UPN9); experiment: BROMOscan BromoKdMAX; format: binding
T14 construct: TRIM33(PHD, Bromo.)
Method: as §1, §2, §3

HCC827 cells [2] = experiment: Label-free determination of cell proliferation (CELIGO); format: cell-based; conditions: HCC827, combined with 100 nM osimertinib, 21 days (FIG. 9)
NCI-H1975 xenografts = experiment: NCI-H1975 xenograft tumor growth; format: in vivo, NMRI-Nude mice
Method: Tumor volume was measured using a manual caliper two to three times a week. The tumor volume was calculated using the formula: lager tumor diameter x square of the smaller tumor diameter divided by 2. Based on a linear fit of the mean tumor volumes the slopes of the curves were compared by regression analysis (two-tailed).
(§4) The response was determined by comparing tumor volume change at time t to its baseline: % tumor volume change=ΔVolt=100%×((Vt−Vinitial)/Vinitial). The Best Response was the minimum value of ΔVolt for t≥10 d. For each time t, the average of ΔVolt from t=0 to t was also calculated. The BestAvgResponse is defined as the minimum value of this average for t≥10 d. This metric captures a combination of speed, strength and durability of response into a single value. […] Mice that were sacrificed because of an adverse event before they had completed 14 d on trial were removed from the data set.
as §4, with “ΔVolt for t≥6 d. For” for “ΔVolt for t≥10 d. For”

[3] = 2 mg/kg osimertinib in combination with 90 mg/kg Compound C

T1 sequence (Q92793 1085-1192 limits assumed): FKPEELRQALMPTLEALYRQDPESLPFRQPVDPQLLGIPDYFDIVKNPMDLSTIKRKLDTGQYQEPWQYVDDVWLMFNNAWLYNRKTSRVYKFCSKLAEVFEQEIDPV
T6 sequence (O95696 562-666 limits assumed): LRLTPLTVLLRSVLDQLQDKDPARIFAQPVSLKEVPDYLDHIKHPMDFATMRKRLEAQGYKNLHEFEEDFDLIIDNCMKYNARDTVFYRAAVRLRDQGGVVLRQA
T14 sequence (Q9UPN9 whole entry): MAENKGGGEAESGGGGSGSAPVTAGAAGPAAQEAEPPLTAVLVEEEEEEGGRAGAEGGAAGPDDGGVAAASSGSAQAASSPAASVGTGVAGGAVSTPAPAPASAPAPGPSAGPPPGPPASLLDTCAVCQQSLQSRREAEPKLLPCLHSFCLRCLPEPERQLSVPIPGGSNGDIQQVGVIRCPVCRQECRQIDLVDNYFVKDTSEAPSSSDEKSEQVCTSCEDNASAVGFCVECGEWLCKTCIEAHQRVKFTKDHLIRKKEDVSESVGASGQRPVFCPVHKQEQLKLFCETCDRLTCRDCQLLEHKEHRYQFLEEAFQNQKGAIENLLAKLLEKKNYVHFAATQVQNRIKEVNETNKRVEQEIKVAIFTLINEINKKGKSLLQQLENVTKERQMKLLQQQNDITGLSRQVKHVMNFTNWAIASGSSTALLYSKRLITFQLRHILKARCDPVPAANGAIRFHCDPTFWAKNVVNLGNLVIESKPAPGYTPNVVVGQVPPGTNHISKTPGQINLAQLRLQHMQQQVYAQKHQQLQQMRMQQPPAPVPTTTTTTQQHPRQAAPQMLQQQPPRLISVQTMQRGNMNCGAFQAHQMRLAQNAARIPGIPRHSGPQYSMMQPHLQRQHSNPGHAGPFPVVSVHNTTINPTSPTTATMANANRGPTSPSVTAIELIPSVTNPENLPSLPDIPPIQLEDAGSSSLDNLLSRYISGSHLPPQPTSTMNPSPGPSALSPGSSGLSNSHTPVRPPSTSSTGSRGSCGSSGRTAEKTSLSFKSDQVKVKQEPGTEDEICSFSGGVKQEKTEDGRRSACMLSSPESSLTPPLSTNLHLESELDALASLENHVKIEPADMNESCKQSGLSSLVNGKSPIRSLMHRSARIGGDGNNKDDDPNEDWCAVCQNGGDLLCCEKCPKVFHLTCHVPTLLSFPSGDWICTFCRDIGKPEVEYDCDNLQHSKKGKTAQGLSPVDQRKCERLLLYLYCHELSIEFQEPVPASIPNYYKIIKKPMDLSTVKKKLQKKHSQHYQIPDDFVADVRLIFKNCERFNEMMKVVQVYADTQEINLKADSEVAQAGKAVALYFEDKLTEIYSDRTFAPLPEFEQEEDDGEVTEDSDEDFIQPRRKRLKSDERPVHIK
T3 sequence (Q9ULI0 951-1066 limits assumed): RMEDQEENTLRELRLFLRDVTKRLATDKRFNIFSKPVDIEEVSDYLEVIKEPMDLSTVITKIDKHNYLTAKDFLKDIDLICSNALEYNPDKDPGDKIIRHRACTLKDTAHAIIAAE
T10 sequence (Q86U86 177-287 limits assumed): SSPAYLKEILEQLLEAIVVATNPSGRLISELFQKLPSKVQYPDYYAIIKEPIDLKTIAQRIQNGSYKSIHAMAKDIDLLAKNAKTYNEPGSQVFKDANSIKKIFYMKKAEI
T4 sequence (Q9UIF9 1793-1897 limits assumed): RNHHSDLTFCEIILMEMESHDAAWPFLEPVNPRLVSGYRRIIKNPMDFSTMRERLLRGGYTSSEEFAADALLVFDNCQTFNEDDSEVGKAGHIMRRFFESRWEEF
T13 sequence (P51532 1453-1564 limits assumed): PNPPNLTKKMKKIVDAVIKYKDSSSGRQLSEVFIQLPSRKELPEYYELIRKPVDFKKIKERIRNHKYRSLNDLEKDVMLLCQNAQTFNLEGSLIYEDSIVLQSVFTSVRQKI
T5 sequence (Q9UIF8 2060-2164 limits assumed): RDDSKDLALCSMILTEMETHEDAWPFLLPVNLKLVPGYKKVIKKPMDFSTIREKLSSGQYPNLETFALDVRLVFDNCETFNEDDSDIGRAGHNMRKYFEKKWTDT
T12 sequence (P51531 1378-1506 limits assumed): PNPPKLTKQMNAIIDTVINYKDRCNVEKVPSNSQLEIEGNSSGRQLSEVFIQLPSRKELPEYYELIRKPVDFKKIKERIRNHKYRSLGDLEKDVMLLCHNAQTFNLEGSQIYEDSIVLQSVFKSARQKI
T2 sequence (Q6PL18 980-1092 limits assumed): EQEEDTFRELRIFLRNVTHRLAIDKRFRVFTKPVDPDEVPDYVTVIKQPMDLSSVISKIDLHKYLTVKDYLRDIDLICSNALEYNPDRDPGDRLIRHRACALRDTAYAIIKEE
T11 sequence (Q86U86 653-763 limits assumed): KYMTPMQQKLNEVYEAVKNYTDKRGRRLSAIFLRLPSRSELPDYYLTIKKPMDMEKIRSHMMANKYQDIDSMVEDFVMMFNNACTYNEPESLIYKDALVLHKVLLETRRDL
T7 sequence (Q9ULD4 589-693 limits assumed): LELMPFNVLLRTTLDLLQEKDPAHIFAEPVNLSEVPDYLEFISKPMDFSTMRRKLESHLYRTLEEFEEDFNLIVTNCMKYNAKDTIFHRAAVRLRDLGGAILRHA
T9 sequence (Q92830 728-832 limits assumed): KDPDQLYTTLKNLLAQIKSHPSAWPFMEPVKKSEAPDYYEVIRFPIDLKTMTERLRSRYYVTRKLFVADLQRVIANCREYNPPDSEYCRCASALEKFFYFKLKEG

In the case of `CC(=O)N1C[C@H](c2nc(Nc3ccnc(C)c3)cc(-c3cccnc3)n2)CC[C@@H]1C` [Compound 00071, 1-((2S,5R)-2-methyl-5-(4-((2-methylpyridin-4-yl)amino)-6-(pyridin-3-yl)pyrimidin-2-yl)piperidin-1-yl)ethan-1-one], the EC50 (CBP bromodomain) is reported as under 0.2 µM, the “Effect on cell proliferation as single agent” value (HCC827 cells [1]; absence of EGFR inhibitor (FIG. 3 left)) is reported as “absence of an anti-proliferative effect” and the “Anti-proliferative activity / re-growth in presence of Gefitinib” value (HCC827 cells [1]; in presence of 300 nM Gefitinib (FIG. 3)) is reported as “potentiate the effect of the EGFR inhibitor”.
`CC(=O)N1C[C@H](c2nc(Nc3cccc(-c4cn(C)nn4)c3)cc(-c3cnccn3)n2)CC[C@@H]1C` [Compound C, 1-((2S,5R)-2-methyl-5-(4-((3-(1-methyl-1H-1,2,3-triazol-4-yl)phenyl)amino)-6-(pyrazin-2-yl)pyrimidin-2-yl)piperidin-1-yl)ethan-1-one] was tested, and the Kd (ATAD2A) was over 10 µM, the Kd (ATAD2B) was over 10 µM and the Kd (BAZ2A) was over 10 µM. The Kd (BAZ2B) was over 10 µM, the Kd (BRD1) was over 10 µM and the Kd (BRPF3) was over 10 µM. It also gave a Kd (FALZ) of over 10 µM, a Kd (GCN5L2) of over 10 µM and a Kd (PBRM1(2)) of over 10 µM. The Kd (PBRM1(5)) was over 10 µM, the Kd (SMARCA2) was over 10 µM and the Kd (SMARCA4) was over 10 µM. The Kd (TRIM33(PHD, Bromo.)) was over 10 µM, the “Development of drug resistance / re-growth” value (HCC827 cells [2]) was “prevent the development of drug resistance” and the Response to therapy (NCI-H1975 xenografts; [3]) was “response to therapy is significantly increased”. For the same compound, the “Slope of linear regression fit of mean tumor volumes over time” value (NCI-H1975 xenografts; [3]) was −7.4, the “Tumor growth (slopes of mean tumor volume curves) versus osimertinib group” value (NCI-H1975 xenografts; 2 mg/kg osimertinib in combination with 90 mg/kg Compound C, daily, orally) was “significant difference” and the “Tumor growth (slopes of mean tumor volume curves) versus vehicle” value (NCI-H1975 xenografts; 90 mg/kg Compound C single agent, daily, orally) was “No significant difference”.
